pIC50: −log10 of the molar value. Converted amounts (≈) assume the structure as drawn. Read-outs that look alike come from different tables or passages of the source. Where a SMILES comes first, the peptide text is derived from it. [ ]: non-standard residue; d: D form. NMeL = CN[C@@H](CC(C)C)C(=O)O; dNMeL = CN[C@H](CC(C)C)C(=O)O
Tests used:
293T = format: cell-based, human; conditions: 48 h
From the text: (§1) Since the antitumor activity of natural galaxamide is good, we are interested in the antitumor potential of the obtained new analogs. To examine the anticancer activities of galaxamide and its analogs, two different human cancer cell lines, human non-small-cell lung cancer cells (A549) and human chronic myelogenous leukemia (K562), and one normal human cell line, human immortal embryonic kidney cells (293T), were selected for the in vitro cell models. […] The synthetic galaxamide (Gala01) was also tested as the standard. […] It was also found […] the best selectivity and highest safety and is thus worthy of further development for anticancer drugs for K562. A549, K562, and 293T cells were purchased from the Cell Resource Center of the Institute of Basic Medicine, Chinese Academy of Medical Sciences. Both A549 cells and K562 cells were cultured in RPMI (full name: Roswell Park Memorial Institute) 1640 medium containing 10% FBS (full name: fetal bovine serum, product number: C04001-500, Vivacell, Shanghai, China) and 1% p/s (full name: penicillin-streptomycin, product number: 15140122, Gbico, Waltham, MA, USA) for culture. The 293T cells were all cultured in DMEM (full name: Dulbecco's Modified Eagle Medium; cat. no.: C3113-0500, Vivacell, ShanghaiChina; containing 10% FBS and 1% p/s) for cultivation. […] Multiple types of cells were seeded into 96-well plates and treated with different concentrations of […]26 for 48 h after they returned to normal. Then, the relative activity of the cells was detected according to the instructions of the CCK-8 kit (item number: MA0218, Meilunbio, Dalian, China) and analyzed and calculated using GraphPad Prism 8.0.1 software.

A549 = format: cell-based, human
From the text: as §1

[1] = test system: human renal cell carcinoma GRC-1; set-up: method as in PMID 18816120; conditions: human renal cell carcinoma GRC-1 cell line; cited from earlier work
K562 = format: cell-based, human
Procedure: To examine the anticancer activities of galaxamide and its analogs, two different human cancer cell lines, human non-small-cell lung cancer cells (A549) and human chronic myelogenous leukemia (K562), and one normal human cell line, human immortal embryonic kidney cells (293T), were selected for the in vitro cell models. […] The synthetic galaxamide (Gala01) was also tested as the standard. […] A549, K562, and 293T cells were purchased from the Cell Resource Center of the Institute of Basic Medicine, Chinese Academy of Medical Sciences. Both A549 cells and K562 cells were cultured in RPMI (full name: Roswell Park Memorial Institute) 1640 medium containing 10% FBS (full name: fetal bovine serum, product number: C04001-500, Vivacell, Shanghai, China) and 1% p/s (full name: penicillin-streptomycin, product number: 15140122, Gbico, Waltham, MA, USA) for culture. The 293T cells were all cultured in DMEM (full name: Dulbecco's Modified Eagle Medium; cat. no.: C3113-0500, Vivacell, ShanghaiChina; containing 10% FBS and 1% p/s) for cultivation. […] Multiple types of cells were seeded into 96-well plates and treated with different concentrations of […]26 for 48 h after they returned to normal. Then, the relative activity of the cells was detected according to the instructions of the CCK-8 kit (item number: MA0218, Meilunbio, Dalian, China) and analyzed and calculated using GraphPad Prism 8.0.1 software.

[2] = test system: human hepatocellular carcinoma Hep G2; set-up: method as in PMID 18816120; conditions: human hepatocellular carcinoma Hep G2 cell line; cited from earlier work
[3] = normal human embryonic kidney cells 293T, CCK-8, NA = not determined due to low inhibitory activity, read-out: IC50 293T
[4] = human non-small-cell lung cancer cells A549, 48 h, CCK-8, unit given in the text, not in Table 2, read-out: IC50 A549
[5] = human chronic myelogenous leukemia K562, 48 h, CCK-8, unit given in the text, not in Table 2, read-out: IC50 K562

pIC50 (A549; 48 h)	pIC50 (K562; 48 h)	Compound	pIC50 (293T; [3])	pIC50 (A549; [4])	IC50 GRC-1 [1] [µg/mL]	pIC50 (K562; [5])	IC50 Hep G2 [2] [µg/mL]	pIC50 (293T)
–	–	CC(C)C[C@@H]1C(=O)N[C@H](CC(C)C)C(=O)N[C@H](CC(C)C)C(=O)N(C)[C@H](CC(C)C)C(=O)N[C@H](CC(C)C)C(=O)N1C [Gala01, Cyclo(Me-D-Leu-D-Leu-D-Leu-Me-D-Leu-D-Leu)] (cyclo([dL][dL][dNMeL][dL][dNMeL]))	4.70	4.85	4.26 (≈ 7.17 µM)	< 4.10	4.63 (≈ 7.8 µM)	–
4.70	4.53	COC(=O)C[C@H]1NC(=O)[C@H](CC(C)C)NC(=O)[C@H](CC(C)C)N(C)C(=O)[C@H](CC(C)C)NC(=O)[C@H](CC(C)C)N(C)C1=O [Gala14, Cyclo(Me-L-Leu-L-Leu-Methylester-D-Asp-Me-L-Leu-L-Leu)] (cyclo(L[NMeL]L[dD](OMe)[NMeL]))	–	–	–	–	–	4.65
–	–	(−)-β-elemene [reference compound]	< 4.00	< 4.00	–	< 4.00	–	–
